Laboratory results from patent publication US20110038921A1, “METHODS AND COMPOSITIONS FOR TEMPORAL RELEASE OF AGENTS FROM A BIODEGRADABLE SCAFFOLD” (Clemson University Research Foundation, priority 2009, published 2011).

What was measured:
[1] = Isoelectric point / hydrophobicity; type: physicochemical
MMP-1 [2] = assay: LPS-stimulated MMP-1 expression in U937 macrophages, ELISA of culture medium; type: cell-based, human; details: 10 μM PD98059, 100 ng/ml LPS, 24 h
Experimental: (§1) FIGS. 2A-D. A. E. coli and A. actinomycetemcomitans LPS activate MAPK pathways in macrophages. RAW 264.7 cells were stimulated for 15 min with LPS and whole cell lysates were used for Western blot analysis. […] B. A. actinomycetemcomitans LPS stimulation of IL-6 requires p38 MAPK signaling. Wild-type and p38 MAPK deficient cells were stimulated with A. actinomycetemcomitans LPS for 24 hrs (white bars). Cells were rescued with pcDNA containing p38a cDNA (p38α) in p38^−/− cells but the dominant negative mutant (p38AF) was not able to restore LPS-induced IL-6 expression. C. […] U937 macrophages were treated with 100 ng/ml of LPS in the presence or absence of 10 μM of PD98059 for 24 h. After the treatment, MMP-1 in culture medium was quantified by ELISA. D. Nuclear proteins were extracted from cells for electrophoretic mobility shift assay to determine AP-1 DNA-binding activity.

MMP expression = details: macrophages, fibroblasts, endothelial cells, epithelial cells; cited from earlier work
IL-6 = assay: U937 macrophages exposed to inhibitor-embedded scaffold with LPS, IL-6 ELISA; type: cell-based, human; details: inhibitor released from PLGA-collagen scaffold; LPS 100 ng/ml; 24 hrs
Experimental: (§2) FIGS. 9A-B. Human U937 macrophages were exposed to control scaffold, PD98059-embedded scaffold, or SB203580-embedded scaffold in the presence or absence of LPS (100 ng/ml) for 24 hrs. After the exposure, culture medium was collected for ELISA to quantify IL-6 (A) or MMP-1 (B).

AP-1 = AP-1 DNA-binding activity, electrophoretic mobility shift assay on nuclear proteins of U937 macrophages; type: cell-based, human; details: 10 μM PD98059, 100 ng/ml LPS, 24 h
Experimental: as §1

MMP-1 [3] = details: rabbit model of osteoarthritis; cited from earlier work
MMP-1 [4] = assay: U937 macrophages exposed to inhibitor-embedded scaffold with LPS, MMP-1 ELISA; type: cell-based, human; details: inhibitor released from PLGA-collagen scaffold; LPS 100 ng/ml; 24 hrs
Experimental: as §2

[5] = collagen; with literature reference 123; cited from earlier work

Compound | MMP expression (MMP expression) | IL-6 in LPS stimulated cultures (IL-6) | MMP-1 in LPS stimulated cultures (MMP-1 [4]) | further results
COc1cccc(-c2cc(=O)c3ccccc3o2)c1N [PD98059] | inhibit MMP expression | significant inhibition | significant inhibition | Hydrophobicity [1]: hydrophobic; LPS-stimulated MMP-1 expression (MMP-1 [2]): inhibitory effect; AP-1 DNA-binding activity (AP-1): inhibitory effect; MMP-1 production by chondrocytes (MMP-1 [3]): decreased MMP-1 production
C[S+]([O-])c1ccc(-c2nc(-c3ccncc3)c(-c3ccc(F)cc3)[nH]2)cc1 (centres unmarked) [SB203580] | – | significant inhibition | significant inhibition | –
N#CC(=C(/N)Sc1ccccc1N)/C(C#N)=C(\N)Sc1ccccc1N [U0126] | inhibit MMP expression | – | – | –
Collagen | – | – | – | Isoelectric point [5]: 5.5
